Data taken from patent US20250041330A1, “METHOD OF TREATING OBESITY BY SELECTIVE TARGETING OF VISCERAL ADIPOSITY USING POLYCATION NANOMEDICINE” (THE TRUSTEES OF COLUMBIA UNIVERSITY IN THE CITY OF NEW YORK, priority 2022, published 2025).

Test system: 3T3-L1 cells
Assay: 3T3-L1 adipocyte differentiation (lipid staining, qPCR)
Type: cell-based, mouse
Settings: NMN 20 mM with P-G3 10 μg/ml, day 0-3 of differentiation
Description: 3T3-L1 (ATCC CL-173) and C3H10T1/2 (CCL-226) cells were purchased from ATCC and cultured in high glucose DMEM supplemented with 10% calf serum (CS, Gemini Bio-Products 100-506) or FBS (heat-inactivated, Corning 35-011-CV), and 1× Pen Strep (Thermo Fisher). Cells were differentiated in the standard adipogenic cocktail after reaching confluence for 2 days. The cocktail contains DMEM, 10% FBS, 1 μM dexamethasone (DEX), 10 μg/ml insulin and 0.5 mM 3-isobutyl-1-methylxanthine (IBMX). 5 μM Rosiglitazone was used in the first two days to facilitate C3H10T1/2 cells' differentiation. After induction for two days, cells were maintained in a complete medium containing 2.5 μg/ml insulin until fully differentiated. P-G3 polymers or NPs (10 μg/ml) were added at indicated times, and cells were harvested during differentiation for analyses. Lipid droplets were visualized using Oil Red O staining or BODIPY staining. 3T3-L1 cells were treated with rapamycin (100 nM) from Day 4 to Day 6. […]
Total RNA from tissues or cells was extracted by using the TriZol reagent (Thermo Fisher) in combination with an RNA isolation kit from Macherey-Nagel. […] Bio-Rad CFX96 Real-Time PCR system was used to perform quantitative real-time PCR (qPCR) with goTaq qPCR Master Mix (Promega). The relative gene expression was calculated by using the ΔΔCt method with Cyclophilin A or Rpl23 as the reference gene. […]

NC(=O)c1ccc[n+]([C@@H]2O[C@H](COP(=O)([O-])O)[C@@H](O)[C@H]2O)c1 [NMN, nicotinamide mononucleotide]
effect on P-G3's pro-adipogenic effect: counteracted the pro-adipogenic effect of P-G3
